# Laboratory results published in article PMC4748415, “Impact of different cell penetrating peptides on the efficacy of antisense therapeutics for targeting intracellular pathogens” (Scientific Reports, 2016).
# Where “and” joins values, the source holds several entries; their conditions need not be identical. Equal values may be shown once. Entries after “also recorded” stand apart in the source; their conditions may differ. Read-outs that look alike come from different tables or passages of the source. Marks after values point to notes of the source that are not given here. Peptide text beside a SMILES is read from it.
# Columns and labels:
# [1] = system: L. monocytogenes J0161 in infected C. elegans; test: C. elegans infection model; settings: 18 hours treatment; for Log CFUs/worm: 10 worms in triplicates; for Log CFUs reduction: versus water
# Experimental: To test the efficacy of PNA in vivo we used Listeria-infected C. elegans. The temperature-sensitive sterile mutant strain C. elegans AU37 [sek-1(km4); glp-4(bn2) I] was used for this study. This strain is sterile at room temperature and can lay eggs only at 15 °C. Furthermore, mutation in the sek-1 gene of the p38 mitogen-activated protein kinase pathway (p38 MAPK pathway), makes this particular C. elegans strain more susceptible to Listeria infection[49][56]. Initially, the pathogenicity of three strains of Listeria (F4244, J0161 and ATCC19111) was tested in C. elegans as described before[24] to determine the most virulent strain to use for this study. […] Briefly, adult worms were grown for 5 days, at 15 °C (temperature that permits worms to lay eggs) on NGM agar plates seeded with a lawn of E. coli OP50. The eggs were harvested by bleaching[57] and maintained for 24 hours at room temperature with gentle agitation for hatching. Hatched larvae were transferred to a new NGM plate seeded with E. coli OP50 and were kept at room temperature for five days until worms reached the adult stage of growth. Adult worms were collected and washed three times with M9 media in a 1:10 ratio to remove E. coli before transfer to LB agar plates seeded with a lawn of L. monocytogenes J0161 for infection. After eight hours of infection, worms were collected and washed with M9 buffer five times before incubation with PNAs. Worms were transferred to low-binding microcentrifuge tubes (10 worms per tube). […] After treatment for 18 hours, worms were washed five times with M9 buffer. […] Samples were serially diluted and plated onto TSA plates containing 5 μg/ml nalidixic acid to select for Listeria.
# [2] = system: L. monocytogenes F4244 inside infected J774A.1 cells; format: cell-based; settings: 4 hours; for Log CFU/ml: intracellular F4244 in J774A.1; for Log CFU reduction: intracellular F4244 in J774A.1, versus control
# [3] = system: clinical isolates of L. monocytogenes; format: cell-based, Listeria monocytogenes
# Experimental: (§1) The MICs of conjugated PNAs, free PNA, CPPs and untreated control against L. monocytogenes were determined using the broth microdilution method according to the Clinical and Laboratory Standards Institute (CLSI) guidelines with the following modifications. Briefly, low binding clear microcentrifuge tubes (USA scientific, Inc. Ocala, FL) were used in triplicates for each reaction instead of traditional 96-well plates. […] After a 16 hour incubation period (of test agent with bacteria), the number of viable bacteria was enumerated by serial dilution and counting on TSA plates. The MICs were repeated at least twice.
# [4] = system: L. monocytogenes F4244; test: Concentration-dependent bacterial log reduction in pure culture; format: cell-based, Listeria monocytogenes; settings: for Log CFU/ml: pure culture F4244, 16 hour incubation; for Log CFU reduction: relative to control, pure culture F4244
# Experimental: as §1
# [5] = system: L. monocytogenes F4244; test: Time kill assay; format: cell-based, Listeria monocytogenes; settings: 12 hours; for time to complete eradication of Listeria: 32 μM PNA, 37 °C, samples every 2 hours, ~10^5 CFU/ml; for bactericidal or bacteriostatic activity: L. monocytogenes, time kill at 32 μM
# Experimental: L. monocytogenes F4244 in logarithmic growth phase was diluted to ~10^5 CFU/ml and incubated with 32 μM of the five PNAs (in triplicates) at 37 °C for 12 hours. Samples were collected every two hours, serially diluted, and plated onto TSA plates. Plates were then incubated wat 37 °C for 24 hours before viable CFUs were determined.
# Samples were collected every 20 minutes and processed as above.
# [6] = system: mitochondrial biogenesis in J774A.1 cells; test: Mitobiogenesis assay (In-Cell ELISA, COX-I/SDH-A); settings: three days, tested at 0.1, 1, 10 and 20 μM, COX-I/SDH-A ratio
# Experimental: To measure the effect of PNA on the mitochondrial biogenesis, In-Cell ELISA Kit (MitoSciences Inc., Eugene, OR, USA) was used as per the manufacturer’s instructions[54][55]. Briefly, J774A.1 cells were seeded (approximately 40,000 cells per well) in 96-well plates and allowed to adhere. […] Cells were allowed to grow for approximately 3 days. Media were removed and cells were washed with PBS, then fixed with 4% paraformaldehyde. After fixing, cells were washed with PBS and permeabilization and blocking processes were done according to the manufacturer’s instructions. Primary antibodies to detect the levels of two proteins (subunit I of Complex IV (COX-I), that is mitochondrial DNA (mtDNA)-encoded), and the 70 kDa subunit of Complex II (SDH-A), a nuclear DNA (nDNA)-encoded were added and incubated for overnight at 4 °C. After incubation, cells were washed with PBS and secondary antibodies were added and incubated at room temperature for one hour. After washing, the expression of SDH-A and COX-1 were measured at 405 nm and 600 nm wavelength, respectively. The ratio between COX-I and SDH-A was calculated and the percent of inhibition of mitochondrial biogenesis was determined.
# [7] = system: L. monocytogenes F4244; test: Time kill assay; format: cell-based, Listeria monocytogenes; settings: 8 μM PNA, 37 °C, samples every 20 minutes, inoculum 2.4 × 10^5 CFU/ml
# [8] = concentration required to inhibit 50% of L. monocytogenes isolates (six isolates)
# [9] = strain ATCC 13932, broth microdilution in low binding tubes, triplicates, 16 hour incubation
# [10] = strain ATCC 19111, broth microdilution in low binding tubes, triplicates, 16 hour incubation
# [11] = strain ATCC 19112, broth microdilution in low binding tubes, triplicates, 16 hour incubation
# [12] = strain ATCC 19114, broth microdilution in low binding tubes, triplicates, 16 hour incubation
# [13] = strain F4244, broth microdilution in low binding tubes, triplicates, 16 hour incubation, no turbidity
# [14] = strain J0161, broth microdilution in low binding tubes, triplicates, 16 hour incubation
compound,measurement,setting,value
"RQIKIWFQNRRMKWKK-O-cgatcattcaaa-NH2 [PANT, anti-rpoA PNA covalently conjugated to the antennapedia CPP]",Log CFUs/worm,[1]; 16 µM,3.88±0.15 Log CFUs/worm
same,Log CFUs reduction,[1]; 16 µM,0.27 Log CFUs
same,Log CFUs/worm,[1]; 32 µM,2.49±0.48 Log CFUs/worm
same,Log CFUs reduction,[1]; 32 µM,1.89 Log CFUs
same,Log CFU/ml,[2]; 2 μM,6.82 ± 0.02 Log CFU/ml
same,Log CFU reduction,[2]; 2 μM,−0.09 Log CFU
same,Log CFU/ml,[2]; 4 μM,6.67 ± 0.05 Log CFU/ml
same,Log CFU reduction,[2]; 4 μM,0.06 Log CFU
same,Log CFU/ml,[2]; 8 μM,4.65 ± 0.34 Log CFU/ml
same,Log CFU reduction,[2]; 8 μM,2.07 Log CFU
same,MIC50,[3]; [8],32 µM
same,MIC,[3]; [9],32 µM
same,MIC,[3]; [10],32 µM
same,MIC,[3]; [11],32 µM
same,MIC,[3]; [12],1 µM
same,MIC,[3]; [13],16 µM
same,MIC,[3]; [14],32 µM
same,Log CFU/ml,[4]; 1 µM PNA,9.30±0.06 Log CFU/ml
same,Log CFU reduction,[4]; 1 µM PNA,0.095 Log CFU
same,Log CFU/ml,[4]; 2 µM PNA,9.27±0.21 Log CFU/ml
same,Log CFU reduction,[4]; 2 µM PNA,0.119 Log CFU
same,Log CFU/ml,[4]; 4 µM PNA,9.14±0.05 Log CFU/ml
same,Log CFU reduction,[4]; 4 µM PNA,0.25 Log CFU
same,Log CFU/ml,[4]; 8 µM PNA,8.09±0.95 Log CFU/ml
same,Log CFU reduction,[4]; 8 µM PNA,1.3 Log CFU and 1.30 Log CFU
same,Log CFU/ml,[4]; 16 µM PNA,6.73±0.48 Log CFU/ml
same,Log CFU reduction,[4]; 16 µM PNA,2.66 Log CFU
same,Log CFU/ml,[4]; 32 µM PNA,bacterial clearance; also recorded: Cleared
same,Log CFU reduction,[4]; 32 µM PNA,9.39 Log CFU
same,time to complete eradication of Listeria,[5],10 h
same,bactericidal or bacteriostatic activity,[5],bactericidal activity
"CC(=O)NC[C@H]1CN(c2ccc(N3CCOCC3)c(F)c2)C(=O)O1 [Linezolid, linezolid]",inhibition of mitochondrial protein synthesis (mitobiogenesis),[6],65%
"N=C(N)NCCC[C@H](NC(=O)CN)C(=O)N[C@@H](CCCCN)C(=O)N[C@@H](CCCCN)C(=O)N[C@@H](CCCCN)C(=O)N[C@@H](CCCNC(=N)N)C(=O)N[C@@H](CCCNC(=N)N)C(=O)N[C@@H](CCC(N)=O)C(=O)N[C@@H](CCCNC(=N)N)C(=O)N[C@@H](CCCNC(=N)N)C(=O)N[C@@H](CCCNC(=N)N)C(=O)N[C@@H](Cc1ccc(O)cc1)C(=O)N[C@@H](CCCCN)C(=O)O [TAT, reference compound] (H-GRKKKRRQRRRYK-OH)",MIC,"[3]; clinical isolates of, 16 h",>128 µM
same,MIC50,"[3]; clinical isolates of, 16 h",>128 µM
"RFRRFRRFRRFRXB [(RFR)4XB, cell penetrating peptide (RFR)4XB, reference compound]",MIC50,[3]; [8],>128 µM
same,MIC,[3]; [9],>128 µM
same,MIC,[3]; [10],32 µM
same,MIC,[3]; [11],>128 µM
same,MIC,[3]; [12],128 µM
same,MIC,[3]; [13],>128 µM
same,MIC,"[3]; strain F4244, broth microdilution in low binding tubes, triplicates, 16 hour incubation, no turbidity, listed as RFR",no growth inhibition
same,MIC,[3]; [14],>128 µM
"RFRRFRRFRRFRXB-O-cgatcattcaaa-NH2 [PRFR, anti-rpoA PNA covalently conjugated to the (RFR)4XB CPP]",Log CFUs/worm,[1]; 16 µM,2.85±0.60 Log CFUs/worm
same,Log CFUs reduction,[1]; 16 µM,1.3 Log CFUs
same,Log CFUs/worm,[1]; 32 µM,1.86±0.26 Log CFUs/worm
same,Log CFUs reduction,[1]; 32 µM,2.52 Log CFUs
same,time to complete elimination of starting inoculum,[7],≤ 20 min
same,Log CFU/ml,[2]; 2 μM,5.89 ± 0.65 Log CFU/ml
same,Log CFU reduction,[2]; 2 μM,0.84 Log CFU
same,Log CFU/ml,[2]; 4 μM,5.10 ± 0.28 Log CFU/ml
same,Log CFU reduction,[2]; 4 μM,1.63* Log CFU
same,Log CFU/ml,[2]; 8 μM,4.29 ± 0.04 Log CFU/ml
same,Log CFU reduction,[2]; 8 μM,2.43* Log CFU
same,MIC50,[3]; [8],4 µM
same,MIC,[3]; [9],4 µM
same,MIC,[3]; [10],8 µM
same,MIC,[3]; [11],4 µM
same,MIC,[3]; [12],1 µM
same,MIC,[3]; [13],2 µM
same,MIC,[3]; [14],16 µM
same,Log CFU/ml,[4]; 1 µM PNA,9.26±0.09 Log CFU/ml
same,Log CFU reduction,[4]; 1 µM PNA,0.13 Log CFU
same,Log CFU/ml,[4]; 2 µM PNA,7.48±0.69 Log CFU/ml
same,Log CFU reduction,[4]; 2 µM PNA,1.91 Log CFU
same,Log CFU/ml,[4]; 4 µM PNA,6.10±0.63 Log CFU/ml
same,Log CFU reduction,[4]; 4 µM PNA,3.29 Log CFU
same,Log CFU/ml,[4]; 8 µM PNA,bacterial clearance; also recorded: Cleared
same,Log CFU reduction,[4]; 8 µM PNA,9.39 Log CFU
same,Log CFU/ml,[4]; 16 µM PNA,Cleared
same,Log CFU reduction,[4]; 16 µM PNA,9.39 Log CFU
same,Log CFU/ml,[4]; 32 µM PNA,Cleared
same,Log CFU reduction,[4]; 32 µM PNA,9.39 Log CFU
same,time to complete eradication of Listeria,[5],≤ 2 h
same,bactericidal or bacteriostatic activity,[5],bactericidal activity
"RXRRXRRXRRXRXB [(RXR)4XB, cell penetrating peptide (RXR)4XB, reference compound]",MIC50,[3]; [8],>128 µM
same,MIC,[3]; [9],>128 µM
same,MIC,[3]; [10],>128 µM
same,MIC,[3]; [11],>128 µM
same,MIC,[3]; [12],>128 µM
same,MIC,[3]; [13],>128 µM
same,MIC,"[3]; strain F4244, broth microdilution in low binding tubes, triplicates, 16 hour incubation, no turbidity, listed as RXR",no growth inhibition
same,MIC,[3]; [14],>128 µM
"NCCCC[C@H](NC(=O)[C@H](Cc1ccccc1)NC(=O)[C@H](Cc1ccccc1)NC(=O)[C@H](CCCCN)NC(=O)[C@H](Cc1ccccc1)NC(=O)[C@H](Cc1ccccc1)NC(=O)[C@H](CCCCN)NC(=O)[C@H](Cc1ccccc1)NC(=O)[C@H](Cc1ccccc1)NC(=O)[C@@H](N)CCCCN)C(N)=O [KFF, reference compound] (H-KFFKFFKFFK-NH2)",MIC50,"[3]; clinical isolates of, 16 h",64 µM
"CNC(C)C1CCC(N)C(OC2C(N)CC(N)C(OC3OCC(C)(O)C(NC)C3O)C2O)O1 (stereo not shown) [Gentamicin, gentamicin, reference compound]",Log CFUs/worm,[1]; 16 µM,3.52±0.55 Log CFUs/worm
same,Log CFUs reduction,[1]; 16 µM,0.63 Log CFUs
same,Log CFUs/worm,[1]; 32 µM,2.18±0.6 Log CFUs/worm
same,Log CFUs reduction,[1]; 32 µM,2.2 Log CFUs
CC1(C)S[C@@H]2[C@H](NC(=O)[C@H](N)c3ccccc3)C(=O)N2[C@H]1C(=O)O [ampicillin],inhibition of mitochondrial protein synthesis (mitobiogenesis),[6],does not significantly inhibit mitobiogenesis
"KFFKFFKFFK-O-cgatcattcaaa-NH2 [PKFF, anti-rpoA PNA covalently conjugated to the (KFF)3K CPP]",Log CFUs/worm,[1]; 16 µM,3.43±0.2 Log CFUs/worm
same,Log CFUs reduction,[1]; 16 µM,0.71 Log CFUs
same,Log CFUs/worm,[1]; 32 µM,3.35±0.25 Log CFUs/worm
same,Log CFUs reduction,[1]; 32 µM,1.03 Log CFUs
same,Log CFU/ml,[2]; 2 μM,6.77 ± 0.03 Log CFU/ml
same,Log CFU reduction,[2]; 2 μM,−0.031 Log CFU
same,Log CFU/ml,[2]; 4 μM,6.76 ± 0.08 Log CFU/ml
same,Log CFU reduction,[2]; 4 μM,−0.029 Log CFU
same,Log CFU/ml,[2]; 8 μM,6.12 ± 0.32 Log CFU/ml
same,Log CFU reduction,[2]; 8 μM,0.6 Log CFU
same,MIC50,[3]; [8],32 µM
same,MIC,[3]; [9],32 µM
same,MIC,[3]; [10],32 µM
same,MIC,[3]; [11],32 µM
same,MIC,[3]; [12],2 µM
same,MIC,[3]; [13],32 µM
same,MIC,[3]; [14],32 µM
same,Log CFU/ml,[4]; 1 µM PNA,9.40±0.08 Log CFU/ml
same,Log CFU reduction,[4]; 1 µM PNA,-0.009 Log CFU
same,Log CFU/ml,[4]; 2 µM PNA,9.35±0.05 Log CFU/ml
same,Log CFU reduction,[4]; 2 µM PNA,0.041 Log CFU
same,Log CFU/ml,[4]; 4 µM PNA,9.26±0.07 Log CFU/ml
same,Log CFU reduction,[4]; 4 µM PNA,0.129 Log CFU
same,Log CFU/ml,[4]; 8 µM PNA,8.93±0.35 Log CFU/ml
same,Log CFU reduction,[4]; 8 µM PNA,0.46 Log CFU
same,Log CFU/ml,[4]; 16 µM PNA,8.40±0.16 Log CFU/ml
same,Log CFU reduction,[4]; 16 µM PNA,0.98 Log CFU
same,Log CFU/ml,[4]; 32 µM PNA,6.63±0.59 Log CFU/ml
same,Log CFU reduction,[4]; 32 µM PNA,2.78 Log CFU
same,bactericidal or bacteriostatic activity,[5],bacteriostatic effect
